Earlier results in patent US11065266B2, “Method of treating melanoma using an inhibitor of an atypical protein kinase C” (UNIVERSITY OF SOUTH FLORIDA, priority 2016, dated 2021).

Target: T1, PKC-ζ (Homo sapiens, UniProt Q05513)
T1 sequence (Q05513 1-592): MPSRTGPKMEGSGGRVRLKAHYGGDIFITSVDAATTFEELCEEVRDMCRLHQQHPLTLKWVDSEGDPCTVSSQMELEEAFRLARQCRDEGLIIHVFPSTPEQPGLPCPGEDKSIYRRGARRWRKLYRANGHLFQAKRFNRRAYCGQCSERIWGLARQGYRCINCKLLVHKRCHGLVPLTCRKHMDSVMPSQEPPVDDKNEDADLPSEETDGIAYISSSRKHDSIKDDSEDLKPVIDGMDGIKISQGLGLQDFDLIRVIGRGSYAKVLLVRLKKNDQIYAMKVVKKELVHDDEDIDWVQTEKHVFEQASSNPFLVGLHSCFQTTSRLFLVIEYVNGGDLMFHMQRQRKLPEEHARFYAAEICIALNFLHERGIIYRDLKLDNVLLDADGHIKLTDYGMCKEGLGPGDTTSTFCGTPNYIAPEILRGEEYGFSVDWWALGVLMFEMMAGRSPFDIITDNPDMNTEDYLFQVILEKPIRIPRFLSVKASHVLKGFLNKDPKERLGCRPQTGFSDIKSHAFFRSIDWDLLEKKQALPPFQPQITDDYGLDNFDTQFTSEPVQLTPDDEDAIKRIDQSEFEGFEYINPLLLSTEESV
Settings: at 10 μM; cited from earlier work

CC(=O)C1=C(O)CCC1=O [ACPD, 2-acetyl-1,3-cyclopentanedione]
inhibition of PKC-ζ: about 60%
